# Experimental data reported in patent US20090131702A1, “METHOD FOR THE PRODUCTION OF METAL CARBOXYLATES AND THE METAL AMINOATE OR METAL HYDROXY ANALOGUE METHIONATE DERIVATIVES THEREOF, AND USE OF SAME AS GROWTH PROMOTERS IN ANIMAL FEED” (NOREL, S.A., priority 2003, published 2009).
# Read-outs that look alike come from different tables or passages of the source. Marks after values point to notes of the source that are not given here.
# Tests used:
# [1] = Zinc concentration in the liver of piglets (Example 11); format: in vivo; settings: end of 21-day experiment, 220 ppm of zinc added to base diet
# Text: At the end of the experiment, one male and one female were selected at random from each batch to take a specimen of liver tissue and determine the zinc content.
# [2] = Test in broilers: production parameters, zinc methioninate / formate / complex (Example 12); format: in vivo, broilers of the Ross strain; settings: for MDC (mean daily consumption) / MDG (mean daily gain): 50 ppm of zinc added to base diet
# Text: Four experimental treatments were used, comprising the same basic diet supplemented with different sources of zinc:
# Control of production parameters was effected at 21 and 42 days of age, recording the live weight and the consumption of feed per batch.
# [3] = Test of efficacy in piglets: production parameters, zinc glycinate / formate / complex (Example 14); format: in vivo; settings: 21-50 days, 130 ppm of zinc added to base diet
# Text: The experimental period was 29 days.
# [4] = piglets, 220 ppm of zinc added to base diet
# Description: 300 piglets were used (cross of Large White and Landrace), 50% males and 50% females, weaned at 21 days of age and housed in 30 pens with 10 animals in each (5 males and 5 females).
# Five experimental treatments were used, comprising the same basic diet, to which different sources of zinc are added:
# The zinc dose was calculated taking into account the zinc content of the ingredients of the feed and the maximum permitted dose (250 ppm of zinc in the finished feed) in the case of treatments T-0 to T-2, and the dose with promoter effect (2000 ppm) in the case of treatment T-3.
# The experimental period was 21 days.
# The experimental model was a design of random blocks, with 6 replications per treatment. Each replication comprised a batch of 10 animals.
# (§1) Control of production parameters was effected at the end of the experiment, recording the live weight, the daily growth and the consumption of feed.
# [5] = broilers, 150 ppm of zinc added to base diet
# Text: 160 one-day old broilers of the Ross strain were used (without differentiation of sexes), housed in cages in groups of 10 animals.
# Control of production parameters was effected at 21 days of age, recording the live weight and the consumption of feed per batch.
# [6] = piglets, 21-41 days; 150 ppm of zinc added to base diet
# Description: 24 piglets were used (Large White*Large White×Landrace), 50% males and 50% females, weaned at 21 days of age and housed in 4 pens with 6 animals in each (3 males and 3 females).
# The zinc dose was calculated taking into account the zinc content of the ingredients and the maximum permitted dose (150 ppm) in all the treatments.
# The experimental period was 20 days.
# as §1
# [7] = broilers
# [8] = 43 to 46 days of age, 50 ppm of zinc added to base diet
smiles,measurement,setting,value
"O=C[O-].O=C[O-].[Zn+2] [zinc formate, Zinc formate]",Liver zinc,[1],59.21a μg/g
same,MDC (mean daily consumption),[2]; 0-21 days,48.3 g/day
same,MDG (mean daily gain),[2]; 0-21 days,35.2 b g
same,MDC (mean daily consumption),[2]; 0-42 days,100.4 g/day
same,MDG (mean daily gain),[2]; 0-42 days,55.0 b g
same,MDC (mean daily consumption),[2]; 21-42 days,152.5 g/day
same,MDG (mean daily gain),[2]; 21-42 days,74.8 b g
same,effect on production parameters (in words),"[2]; 50 ppm of zinc, control T-0 = zinc sulfate",same effect
same,LW 21 d (live weight),"[2]; day 21, 50 ppm of zinc added to base diet",740 b g
same,LW 42 d (live weight),"[2]; day 42, 50 ppm of zinc added to base diet",2310 b g
same,GLW 21-50 d (gain in live weight),[3],12.50 b kg
same,MDC (mean daily consumption),[3],752.3 g/day
same,MDG (mean daily gain),[3],431.0 b g
same,MDC (mean daily consumption),[4]; 21-28 days,312.3 g/day
same,MDG (mean daily gain),[4]; 21-28 days,268.6 B g
same,MDC (mean daily consumption),[4]; 21-42 days,752.3 g/day
same,MDG (mean daily gain),[4]; 21-42 days,512.6 b g
same,LW 28 d (live weight),[4]; day 28,8.76 ab kg
same,LW 42 d (live weight),[4]; day 42,14.30 b kg
same,MDC (mean daily consumption),[5]; 0-21 days,47.5 g/day
same,MDG (mean daily gain),[5]; 0-21 days,37.6 b g
same,LW 21 d (live weight),[5]; day 21,790 b g
same,GLW 21-41 d (gain in live weight),[6],8.00 b kg
same,MDC (mean daily consumption),[6],655.0 g/day
same,MDG (mean daily gain),[6],400.0 b g
same,Zinc excreted,[7]; [8],7.20^b mg
same,Zinc ingested,[7]; [8],13.3^a mg
same,zinc bioavailability (in words),[7]; 50 ppm of zinc,highest bioavailability
same,Bioavailability,"[7]; zinc, 43 to 46 days of age, 50 ppm of zinc added to base diet",45.8^b %
